Measured values from the supplement of paper PMC10307832.

Tests used:
Test in all cases: relative viability (nuclei count vs DMSO), 5 days (fraction); higher = more cells survive
Everolimus + Foretinib = compound: CO[C@H]1C[C@@H]2CC[C@@H](C)[C@@](O)(O2)C(=O)C(=O)N2CCCC[C@H]2C(=O)O[C@H]([C@H](C)C[C@@H]2CC[C@@H](OCCO)[C@H](OC)C2)CC(=O)[C@H](C)/C=C(\C)[C@@H](O)[C@@H](OC)C(=O)[C@H](C)C[C@H](C)/C=C/C=C/C=C/1C [Everolimus] + COc1cc2c(Oc3ccc(NC(=O)C4(C(=O)Nc5ccc(F)cc5)CC4)cc3F)ccnc2cc1OCCCN1CCOCC1 [Foretinib] (partner 0.25 µM)
Summary of the method: (§1)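 Relative viability equals treated-well nuclei counts divided by vehicle-well nuclei counts. Counts came from 4× images of lung cancer cell lines grown in 1536-well plates for 5 days after pin-tool dosing on the day after seeding. Dosing used one drug alone or a fixed anchor-drug dose plus five library-drug doses (not always all listed) in √10 steps, and values are medians of duplicate plates.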

Everolimus + Alpelisib = compound: CO[C@H]1C[C@@H]2CC[C@@H](C)[C@@](O)(O2)C(=O)C(=O)N2CCCC[C@H]2C(=O)O[C@H]([C@H](C)C[C@@H]2CC[C@@H](OCCO)[C@H](OC)C2)CC(=O)[C@H](C)/C=C(\C)[C@@H](O)[C@@H](OC)C(=O)[C@H](C)C[C@H](C)/C=C/C=C/C=C/1C [Everolimus] + Cc1nc(NC(=O)N2CCC[C@H]2C(N)=O)sc1-c1ccnc(C(C)(C)C(F)(F)F)c1 [Alpelisib] (partner 2 µM)
Summary of the method: as §1

Everolimus + Pemetrexed = compound: CO[C@H]1C[C@@H]2CC[C@@H](C)[C@@](O)(O2)C(=O)C(=O)N2CCCC[C@H]2C(=O)O[C@H]([C@H](C)C[C@@H]2CC[C@@H](OCCO)[C@H](OC)C2)CC(=O)[C@H](C)/C=C(\C)[C@@H](O)[C@@H](OC)C(=O)[C@H](C)C[C@H](C)/C=C/C=C/C=C/1C [Everolimus] + Nc1nc2[nH]cc(CCc3ccc(C(=O)N[C@@H](CCC(=O)O)C(=O)O)cc3)c2c(=O)[nH]1 [Pemetrexed] (partner 0.2 µM)
Summary of the method: as §1

Everolimus + Olaparib = compound: CO[C@H]1C[C@@H]2CC[C@@H](C)[C@@](O)(O2)C(=O)C(=O)N2CCCC[C@H]2C(=O)O[C@H]([C@H](C)C[C@@H]2CC[C@@H](OCCO)[C@H](OC)C2)CC(=O)[C@H](C)/C=C(\C)[C@@H](O)[C@@H](OC)C(=O)[C@H](C)C[C@H](C)/C=C/C=C/C=C/1C [Everolimus] + O=C(c1cc(Cc2n[nH]c(=O)c3ccccc23)ccc1F)N1CCN(C(=O)C2CC2)CC1 [Olaparib] (partner 8 µM)
Summary of the method: as §1

| Cell Line | relative viability (Everolimus + Foretinib; first compound 0.01 µM) | relative viability (Everolimus + Foretinib; first compound 0.03162 µM) | relative viability (Everolimus + Foretinib; first compound 0.1 µM) | relative viability (Everolimus + Foretinib; first compound 0.3162 µM) | relative viability (Everolimus + Foretinib; first compound 1 µM) | relative viability (Everolimus + Alpelisib; first compound 0.01 µM) | relative viability (Everolimus + Alpelisib; first compound 0.03162 µM) | relative viability (Everolimus + Alpelisib; first compound 0.1 µM) | relative viability (Everolimus + Alpelisib; first compound 0.3162 µM) | relative viability (Everolimus + Alpelisib; first compound 1 µM) | relative viability (Everolimus + Pemetrexed; first compound 0.01 µM) | relative viability (Everolimus + Pemetrexed; first compound 0.03162 µM) | relative viability (Everolimus + Pemetrexed; first compound 0.1 µM) | relative viability (Everolimus + Pemetrexed; first compound 0.3162 µM) | relative viability (Everolimus + Pemetrexed; first compound 1 µM) | relative viability (Everolimus + Olaparib; first compound 0.01 µM) | relative viability (Everolimus + Olaparib; first compound 0.03162 µM) | relative viability (Everolimus + Olaparib; first compound 0.1 µM) | relative viability (Everolimus + Olaparib; first compound 0.3162 µM) | relative viability (Everolimus + Olaparib; first compound 1 µM) |
| --- | --- | --- | --- | --- | --- | --- | --- | --- | --- | --- | --- | --- | --- | --- | --- | --- | --- | --- | --- | --- |
| H3255 | 0.572 | 0.621 | 0.458 | 0.294 | 0.565 | 0.526 | 0.412 | 0.48 | 0.441 | 0.334 | 0.459 | 0.458 | 0.478 | 0.449 | 0.455 | 0.489 | 0.513 | 0.444 | 0.454 | 0.355 |
| EPLC-272H | 0.451 | 0.414 | 0.443 | 0.417 | 0.489 | 0.797 | 0.577 | 0.592 | 0.586 | 0.638 | 0.343 | 0.317 | 0.397 | 0.313 | 0.315 | 0.552 | 0.484 | 0.428 | 0.429 | 0.483 |
| PC-3 [JPC-3] | 1.16 | 1.13 | 0.994 | 0.985 | 0.987 | 0.881 | 0.828 | 0.793 | 0.789 | 0.747 | 0.988 | 0.9 | 0.72 | – | 1.07 | 1.07 | 1.21 | 1.1 | – | 1.05 |
| NCI-H1793 | 0.293 | 0.314 | 0.259 | 0.293 | 0.291 | 0.314 | 0.225 | 0.298 | 0.23 | 0.267 | 0.373 | 0.332 | 0.319 | 0.351 | 0.251 | 0.346 | 0.345 | 0.319 | 0.343 | 0.235 |
| EKVX | 0.582 | 0.808 | 0.428 | 0.444 | 0.555 | 0.479 | 0.48 | 0.436 | 0.61 | 0.449 | – | 0.378 | 0.371 | 0.345 | 0.389 | – | 0.493 | 0.494 | 0.561 | 0.558 |
| ChaGo-K-1 | 0.903 | 0.85 | 0.884 | 0.761 | 0.805 | – | – | – | – | – | 0.247 | 0.265 | 0.26 | 0.244 | 0.249 | 0.424 | 0.492 | 0.466 | 0.401 | 0.494 |
| NCI-H23 | 0.751 | 0.654 | 0.527 | 0.529 | 0.517 | 0.355 | 0.326 | 0.285 | 0.281 | 0.309 | 0.55 | 0.398 | 0.607 | 0.535 | 0.472 | 0.261 | 0.219 | 0.267 | 0.221 | 0.22 |
| EMC-BAC-2 | 0.66 | 0.564 | 0.576 | 0.643 | 0.521 | 0.499 | 0.46 | 0.388 | 0.461 | 0.481 | 0.469 | 0.491 | 0.445 | 0.45 | 0.491 | 0.455 | 0.43 | 0.385 | 0.383 | 0.347 |
